For this experiment, the target named is T1, CFTR in F508del/MF-HBE cells (Homo sapiens, UniProt P13569, DEL508-508).
T1 construct: human bronchial epithelial (HBE) cells derived from CF subjects heterozygous for F508del and a minimal function CFTR mutation; endogenous in cells; host or cells: primary human bronchial epithelial cells from CF subjects (F508del/MF-HBE)
T1 sequence (P13569 with tags, fused parts or gaps DEL508-508): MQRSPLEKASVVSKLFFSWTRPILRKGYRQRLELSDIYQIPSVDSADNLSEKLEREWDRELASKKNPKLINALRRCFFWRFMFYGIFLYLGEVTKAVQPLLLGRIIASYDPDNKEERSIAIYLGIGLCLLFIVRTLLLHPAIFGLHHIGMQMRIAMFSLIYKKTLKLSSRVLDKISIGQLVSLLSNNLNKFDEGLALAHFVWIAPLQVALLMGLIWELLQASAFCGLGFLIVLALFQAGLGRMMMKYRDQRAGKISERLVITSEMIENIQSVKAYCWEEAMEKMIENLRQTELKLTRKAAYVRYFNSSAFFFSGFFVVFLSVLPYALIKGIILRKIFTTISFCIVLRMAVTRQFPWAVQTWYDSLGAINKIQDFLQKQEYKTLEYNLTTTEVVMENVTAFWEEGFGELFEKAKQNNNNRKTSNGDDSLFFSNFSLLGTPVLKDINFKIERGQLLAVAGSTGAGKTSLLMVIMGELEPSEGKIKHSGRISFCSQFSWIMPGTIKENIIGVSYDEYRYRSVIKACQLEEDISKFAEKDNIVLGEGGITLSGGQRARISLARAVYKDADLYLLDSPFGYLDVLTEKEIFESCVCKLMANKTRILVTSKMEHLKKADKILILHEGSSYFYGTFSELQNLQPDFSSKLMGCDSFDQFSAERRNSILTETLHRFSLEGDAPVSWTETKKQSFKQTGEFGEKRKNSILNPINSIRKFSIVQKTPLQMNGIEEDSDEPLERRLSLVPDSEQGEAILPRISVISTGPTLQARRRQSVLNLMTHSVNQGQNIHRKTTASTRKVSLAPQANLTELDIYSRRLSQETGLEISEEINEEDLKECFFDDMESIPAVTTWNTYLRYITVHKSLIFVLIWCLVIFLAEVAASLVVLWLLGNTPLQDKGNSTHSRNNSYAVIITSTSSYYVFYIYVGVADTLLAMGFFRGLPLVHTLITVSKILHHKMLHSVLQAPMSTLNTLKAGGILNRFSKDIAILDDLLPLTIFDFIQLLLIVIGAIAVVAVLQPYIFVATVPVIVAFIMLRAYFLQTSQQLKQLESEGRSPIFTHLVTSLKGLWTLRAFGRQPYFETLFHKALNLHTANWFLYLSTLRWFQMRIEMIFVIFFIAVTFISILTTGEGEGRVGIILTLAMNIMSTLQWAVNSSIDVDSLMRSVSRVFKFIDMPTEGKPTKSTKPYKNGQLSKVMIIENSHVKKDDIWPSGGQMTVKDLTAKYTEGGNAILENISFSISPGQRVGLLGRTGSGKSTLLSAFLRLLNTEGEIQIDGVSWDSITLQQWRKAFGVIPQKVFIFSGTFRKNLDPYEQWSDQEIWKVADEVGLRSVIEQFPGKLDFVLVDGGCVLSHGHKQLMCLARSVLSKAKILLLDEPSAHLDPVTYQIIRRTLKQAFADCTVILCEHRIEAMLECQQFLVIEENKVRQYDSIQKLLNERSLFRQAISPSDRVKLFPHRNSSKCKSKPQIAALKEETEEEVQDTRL
As to the kind of experiment: Ussing chamber assay of CFTR-mediated short-circuit currents (identification of potentiator compounds). It counts as cell-based. To be noted: potentiator incubated 18-24 hours at 37° C. in combination with 10 μM corrector, in the presence of 20% human serum, CFTR-mediated ISC. In short, it runs like this: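 Short-circuit current was measured in Ussing chambers at 37° C, Vhold 0 mV, 30 μM apical amiloride. CFTR current was defined as the forskolin (20 μM) response relative to the current remaining after BPO/GlyH-101/inhibitor 172 (20 μM each). Before recording, cells had 18-24 h exposure to test potentiators with 10 μM corrector compound in 20% human serum.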
As for `N#CC1CCCCc2cccc(c2)C(O)(C(F)(F)F)C2=NN=C(O2)c2nc1c(C(F)(F)F)cc2N` (centres unmarked) [Compound 64, 20-amino-6-hydroxy-6,18-bis(trifluoromethyl)-23-oxa-3,4,21-triazatetracyclo[15.3.1.12,5.17,11]tricosa-1(21),2,4,7,9,11(22),17,19-octaene-16-carbonitrile], the half-maximal effective concentration (EC50) (commonly the concentration giving half of the maximal effect) was below 500 nM.

Regarding `N#CC1CCCCc2ccc(F)c(c2)C(O)(C(F)(F)F)C2=NN=C(O2)c2nc1c(C(F)(F)F)cc2N` (centres unmarked) [Compound 69, 20-Amino-8-fluoro-6-hydroxy-6,18-bis(trifluoromethyl)-23-oxa-3,4,21-triazatetracyclo[15.3.1.12,5.17,11]tricosa-1(21),2,4,7,9,11(22),17,19-octaene-16-carbonitrile], the EC50 is below 500 nM.

For `COc1ccc(CN2CCCCC[C@](O)(C(F)(F)F)C3=NN=C(O3)c3nc(c(C(F)(F)F)cc3N)C2=O)cc1` [Compound 76, (6R)-17-Amino-6-hydroxy-12-[(4-methoxyphenyl)methyl]-6,15-bis (trifluoromethyl)-19-oxa-3,4,12,18-tetrazatricyclo [12.3.1.12,5] nonadeca-1(18),2,4,14,16-pentaen-13-one], the EC50 is below 500 nM.

Take `CC(C)(C)CN1CCCCC[C@](O)(C(F)(F)F)C2=NN=C(O2)c2nc(c(C(F)(F)F)cc2N)C1=O` [Compound 80, (6R)-17-Amino-12-(2,2-dimethylpropyl)-6-hydroxy-6,15-bis (trifluoromethyl)-19-oxa-3,4,12,18-tetrazatricyclo [12.3.1.12,5] nonadeca-1(18),2,4,14,1 6-pentaen-13-one]: the EC50 is below 500 nM.

With `Nc1cc(C(F)(F)F)c2nc1-c1nnc(o1)[C@@](O)(C(F)(F)F)CCCCCN(C1CCCCC1)C2=O` [Compound 81, (6R)-17-Amino-12-cyclohexyl-6-hydroxy-6,15-bis (trifluoromethyl)-19-oxa-3,4,12,18-tetrazatricyclo [12.3.1.12,5] nonadeca-1(18),2,4,14,1 6-pentaen-13-one], the EC50 was below 500 nM.

Turning to `CCCN1CCCCC[C@](O)(C(F)(F)F)C2=NN=C(O2)c2nc(c(C(F)(F)F)cc2N)C1=O` [Compound 82, (6R)-17-Amino-6-hydroxy-12-propyl-6,15-bis (trifluoromethyl)-19-oxa-3,4,12,18-tetrazatricyclo [12.3.1.12,5] nonadeca-1(18),2,4,14,1 6-pentaen-13-one], the EC50 is below 500 nM.

`Nc1cc(C(F)(F)F)c2nc1-c1nnc(o1)[C@@](O)(C(F)(F)F)CCCCCN(CC1CC1)C2=O` [Compound 83, (6R)-17-Amino-12-(cyclopropylmethyl)-6-hydroxy-6,15-bis(trifluoromethyl)-19-oxa-3,4,12,18-tetrazatricyclo [12.3.1.12,5] nonadeca-1(18),2,4,14,1 6-pentaen-13-one]: the EC50 was below 500 nM.

Regarding `Nc1cc(C(F)(F)F)c2nc1-c1nnc(o1)[C@@](O)(C(F)(F)F)CCCCCN(C1CC(F)(F)C1)C2=O` [Compound 84, (6R)-17-Amino-12-(3,3-difluorocyclobutyl)-6-hydroxy-6,15-bis (trifluoromethyl)-19-oxa-3,4,12,18-tetrazatricyclo [12.3.1.12,5] nonadeca-1(18),2,4,14,1 6-pentaen-13-one], the EC50 was below 500 nM.

With `CC(C)(C)N1CCCCC[C@](O)(C(F)(F)F)C2=NN=C(O2)c2nc(c(C(F)(F)F)cc2N)C1=O` [Compound 85, (6R)-17-Amino-12-tert-butyl-6-hydroxy-6,15-bis(trifluoromethyl)-19-oxa-3,4,12,18-tetrazatricyclo [12.3.1.12,5] nonadeca-1(18),2,4,14,1 6-pentaen-13-one], the EC50 is below 500 nM.

For the compound `Nc1cc(C(F)(F)F)c2nc1-c1nnc(o1)[C@@](O)(C(F)(F)F)CCCCCN(C13CC(C1)C3)C2=O` [Compound 86, (6R)-17-Amino-12-(1-bicyclo[1.1.1]pentanyl)-6-hydroxy-6,15-bis (trifluoromethyl)-19-oxa-3,4,12,18-tetrazatricyclo [12.3.1.12,5] nonadeca-1(18),2,4,14,1 6-pentaen-13-one], the EC50 is below 500 nM.

`Nc1cc(C(F)(F)F)c2nc1-c1nnc(o1)[C@@](O)(C(F)(F)F)CCCCCN(C1CC3(CCC3)C1)C2=O` [Compound 87, (6R)-17-Amino-6-hydroxy-12-spiro[3.3]heptan-2-yl-6,15-bis(trifluoromethyl)-19-oxa-3,4,12,18-tetrazatricyclo [12.3.1.12,5] nonadeca-1(18),2,4,14,1 6-pentaen-13-one]: the EC50 was below 500 nM.

Turning to `CC[C@H](C)N1CCCCC[C@](O)(C(F)(F)F)C2=NN=C(O2)c2nc(c(C(F)(F)F)cc2N)C1=O` [Compound 88, (6R)-17-Amino-6-hydroxy-12-[(1S)-1-methylpropyl]-6,15-bis (trifluoromethyl)-19-oxa-3,4,12,18-tetrazatricyclo [12.3.1.12,5] nonadeca-1(18),2,4,14,1 6-pentaen-13-one], the 50% effective concentration (EC50) is below 500 nM.

`CC[C@@H](C)N1CCCCC[C@](O)(C(F)(F)F)C2=NN=C(O2)c2nc(c(C(F)(F)F)cc2N)C1=O` [Compound 89, (6R)-17-Amino-6-hydroxy-12-[(1R)-1-methylpropyl]-6,15-bis (trifluoromethyl)-19-oxa-3,4,12,18-tetrazatricyclo [12.3.1.12,5] nonadeca-1(18),2,4,14,1 6-pentaen-13-one]: the EC50 is below 500 nM.

In the case of `CCC(C)(C)N1CCCCC[C@](O)(C(F)(F)F)C2=NN=C(O2)c2nc(c(C(F)(F)F)cc2N)C1=O` [Compound 90, (6R)-17-Amino-12-(1,1-dimethylpropyl)-6-hydroxy-6,15-bis(trifluoromethyl)-19-oxa-3,4,12,18-tetrazatricyclo [12.3.1.12,5] nonadeca-1(18),2,4,14,1 6-pentaen-13-one], the EC50 was below 500 nM.

As for `Nc1cc(C(F)(F)F)c2nc1-c1nnc(o1)[C@@](O)(C(F)(F)F)CCCCCN(C1CCC(F)(F)CC1)C2=O` [Compound 91, (6R)-17-Amino-12-(4,4-difluorocyclohexyl)-6-hydroxy-6,15-bis (trifluoromethyl)-19-oxa-3,4,12,18-tetrazatricyclo [12.3.1.12,5] nonadeca-1(18),2,4,14,1 6-pentaen-13-one], the EC50 is below 500 nM.

For `Nc1cc(C(F)(F)F)c2nc1-c1nnc(o1)[C@@](O)(C(F)(F)F)CCCCCN(C1C3CC1C3)C2=O` (stereo partly drawn) [Compound 92, (6R)-17-Amino-12-(2-bicyclo[1.1.1]pentanyl)-6-hydroxy-6,15-bis(trifluoromethyl)-19-oxa-3,4,12,18-tetrazatricyclo [12.3.1.12,5] nonadeca-1(18),2,4,14,1 6-pentaen-13-one], the concentration giving a half-maximal response (EC50) was below 500 nM.

Regarding `CC1(C)CC(N2CCCCC[C@](O)(C(F)(F)F)C3=NN=C(O3)c3nc(c(C(F)(F)F)cc3N)C2=O)C1` [Compound 93, (6R)-17-Amino-12-(3,3-dimethylcyclobutyl)-6-hydroxy-6,15-bis (trifluoromethyl)-19-oxa-3,4,12,18-tetrazatricyclo [12.3.1.12,5] nonadeca-1(18),2,4,14,1 6-pentaen-13-one], the EC50 was below 500 nM.

With `CC1(N2CCCCC[C@](O)(C(F)(F)F)C3=NN=C(O3)c3nc(c(C(F)(F)F)cc3N)C2=O)CC1` [Compound 94, (6R)-17-Amino-6-hydroxy-12-(1-methylcyclopropyl)-6,15-bis (trifluoromethyl)-19-oxa-3,4,12,18-tetrazatricyclo [12.3.1.12,5] nonadeca-1(18),2,4,14,1 6-pentaen-13-one], the 50% effective concentration (EC50) was below 500 nM.

Take `Nc1cc(C(F)(F)F)c2nc1-c1nnc(o1)[C@@](O)(C(F)(F)F)CCCCCN(C1CC3(C1)CC(F)(F)C3)C2=O` [Compound 95, (6R)-17-Amino-12-(2,2-difluorospiro [3.3]heptan-6-yl)-6-hydroxy-6,15-bis (trifluoromethyl)-19-oxa-3,4,12,18-tetrazatricyclo [12.3.1.12,5] nonadeca-1(18),2,4,14,1 6-pentaen-13-one]: the EC50 is below 500 nM.

For the compound `CC1(N2CCCCC[C@](O)(C(F)(F)F)C3=NN=C(O3)c3nc(c(C(F)(F)F)cc3N)C2=O)CC(F)(F)C1` [Compound 96, (6R)-17-Amino-12-(3,3-difluoro-1-methyl-cyclobutyl)-6-hydroxy-6,15-bis (trifluoromethyl)-19-oxa-3,4,12,18-tetrazatricyclo [12.3.1.12,5] nonadeca-1(18),2,4,14,1 6-pentaen-13-one], the half-maximal effective concentration (EC50) is below 500 nM.

On to `CC(C)(C)[C@H]1CC[C@H](N2CCCCC[C@](O)(C(F)(F)F)C3=NN=C(O3)c3nc(c(C(F)(F)F)cc3N)C2=O)CC1` [Compound 97, (6R)-17-Amino-12-(trans-4-tert-butylcyclohexyl)-6-hydroxy-6,15-bis (trifluoromethyl)-19-oxa-3,4,12,18-tetrazatricyclo [12.3.1.12,5] nonadeca-1(18),2,4,14,1 6-pentaen-13-one], for which the EC50 was below 500 nM.

With `Nc1cc(C(F)(F)F)c2nc1-c1nnc(o1)[C@@](O)(C(F)(F)F)CCCCCN(C1CCOCC1)C2=O` [Compound 98, (6R)-17-Amino-6-hydroxy-12-tetrahydropyran-4-yl-6,15-bis (trifluoromethyl)-19-oxa-3,4,12,18-tetrazatricyclo [12.3.1.12,5] nonadeca-1(18),2,4,14,1 6-pentaen-13-one], the concentration for a half-maximal effect (EC50) was below 500 nM.

As for `Nc1cc(C(F)(F)F)c2nc1-c1nnc(o1)[C@@](O)(C(F)(F)F)CCCCCN(C1CC3(CNC3)C1)C2=O` [Compound 99, (6R)-17-Amino-12-(2-azaspiro[3.3]heptan-6-yl)-6-hydroxy-6,15-bis (trifluoromethyl)-19-oxa-3,4,12,18-tetrazatricyclo [12.3.1.12,5] nonadeca-1(18),2,4,14,1 6-pentaen-13-one], the concentration for a half-maximal effect (EC50) was above 1000 nM.

Source of the values: patent publication US20250122218A1, “MODULATORS OF CYSTIC FIBROSIS TRANSMEMBRANE CONDUCTANCE REGULATOR” (Vertex Pharmaceuticals Incorporated, priority 2022, published 2025).
